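Protocol summary: plate cells (96-well), add compound at 5 concentrations, incubate 48 h, interpolate endpoints linearly. Here, GI50 denotes the concentration required for 50% inhibition of growth.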 Active and inactive are the calls of the source. Rule as the data show it: active = GI50 up to about 1.1 µM and inactive = higher.
Legend:
Assay in all cases: NCI-60 cell line screen, 48 h
ACHN = system: ACHN
HL-60 = system: HL-60
Malme-3M = system: Malme-3M
NCI-H226 = system: NCI-H226
LOX IMVI = system: LOX IMVI
OVCAR-5 = system: OVCAR-5
OVCAR-3 = system: OVCAR-3
MDA-MB-231 = system: MDA-MB-231
M14 = system: M14
SK-OV-3 = system: SK-OV-3
HCC 2998 = system: HCC 2998
HCT-15 = system: HCT-15
OVCAR-8 = system: OVCAR-8
A498 = system: A498
MOLT-4 = system: MOLT-4
SK-MEL-5 = system: SK-MEL-5
SF-268 = system: SF-268
SK-MEL-28 = system: SK-MEL-28
MCF7 = system: MCF7
UACC-257 = system: UACC-257

Row | SMILES | GI50 (ACHN) | GI50 (HL-60) | GI50 (Malme-3M) | GI50 (NCI-H226) | GI50 (LOX IMVI) | GI50 (OVCAR-5) | GI50 (OVCAR-3) | GI50 (MDA-MB-231) | GI50 (M14) | GI50 (SK-OV-3) | GI50 (HCC 2998) | GI50 (HCT-15) [µM] | GI50 (OVCAR-8) | GI50 (A498) | GI50 (MOLT-4) | GI50 (SK-MEL-5) | GI50 (SF-268) | GI50 (SK-MEL-28) | GI50 (MCF7) | GI50 (UACC-257)
1 | COCOC1/C=C/CCCCC2=C(C)C=C(C1)O2 (stereo not given) | > 100 µM (inactive) | 45.4 µM (inactive) | > 100 µM (inactive) | > 100 µM (inactive) | > 100 µM (inactive) | > 100 µM (inactive) | > 100 µM (inactive) | > 100 µM (inactive) | > 100 µM (inactive) | > 100 µM (inactive) | > 100 µM (inactive) | > 100 | > 100 µM (inactive) | > 100 µM (inactive) | > 100 µM (inactive) | > 100 µM (inactive) | > 100 µM (inactive) | > 100 µM (inactive) | > 100 µM (inactive) | > 100 µM (inactive)
2 | Cc1ccc(S(=O)(=O)N2CCNCCN(S(=O)(=O)c3ccc(C)cc3)CCN(S(=O)(=O)c3ccc(C)cc3)CC2)cc1 | > 100 µM (inactive) | > 100 µM (inactive) | > 100 µM (inactive) | > 100 µM (inactive) | > 100 µM (inactive) | > 100 µM (inactive) | > 100 µM (inactive) | > 100 µM (inactive) | > 100 µM (inactive) | > 100 µM (inactive) | > 100 µM (inactive) | > 100 | > 100 µM (inactive) | > 100 µM (inactive) | > 100 µM (inactive) | > 100 µM (inactive) | > 100 µM (inactive) | > 100 µM (inactive) | > 100 µM (inactive) | > 100 µM (inactive)
3 | COc1nc2nccnc2c(=O)n1C | > 10 µM (inactive) | > 10 µM (inactive) | > 10 µM (inactive) | > 10 µM (inactive) | > 10 µM (inactive) | > 10 µM (inactive) | > 10 µM (inactive) | > 10 µM (inactive) | > 10 µM (inactive) | > 10 µM (inactive) | > 10 µM (inactive) | > 10 | > 10 µM (inactive) | > 10 µM (inactive) | > 10 µM (inactive) | > 10 µM (inactive) | > 10 µM (inactive) | > 10 µM (inactive) | > 10 µM (inactive) | > 10 µM (inactive)
4 | CCCCn1cc(C(=O)O)c(=O)c2c3sccc3ccc21 | > 100 µM (inactive) | 34.8 µM (inactive) | > 100 µM (inactive) | > 100 µM (inactive) | > 100 µM (inactive) | > 100 µM (inactive) | > 100 µM (inactive) | > 100 µM (inactive) | > 100 µM (inactive) | > 100 µM (inactive) | > 100 µM (inactive) | 47 | > 100 µM (inactive) | > 100 µM (inactive) | > 100 µM (inactive) | > 100 µM (inactive) | > 100 µM (inactive) | > 100 µM (inactive) | > 100 µM (inactive) | > 100 µM (inactive)
5 | CCSc1nc(COC(=O)NC)c(COC(=O)NC)n1C | 16.6 µM (inactive) | 82.6 µM (inactive) | > 100 µM (inactive) | > 100 µM (inactive) | > 97.1 µM (inactive) | > 100 µM (inactive) | > 100 µM (inactive) | > 100 µM (inactive) | > 64.1 µM (inactive) | 50.7 µM (inactive) | > 85.7 µM (inactive) | > 100 | > 100 µM (inactive) | > 67.9 µM (inactive) | 43.4 µM (inactive) | > 100 µM (inactive) | 70.1 µM (inactive) | > 100 µM (inactive) | > 70.5 µM (inactive) | > 100 µM (inactive)
6 | O=C1Nc2ccccc2NC1C1OC(c2ccccc2)=CC1=O (stereo not given) | > 100 µM (inactive) | > 100 µM (inactive) | > 100 µM (inactive) | > 100 µM (inactive) | > 100 µM (inactive) | > 100 µM (inactive) | > 100 µM (inactive) | > 100 µM (inactive) | > 100 µM (inactive) | > 100 µM (inactive) | > 100 µM (inactive) | > 100 | > 100 µM (inactive) | > 100 µM (inactive) | > 100 µM (inactive) | > 100 µM (inactive) | > 100 µM (inactive) | > 100 µM (inactive) | > 100 µM (inactive) | 40.8 µM (inactive)
7 | CCn1c(SCC(=O)NNC(=S)NC)nc2ccccc2c1=O | > 100 µM (inactive) | > 100 µM (inactive) | > 100 µM (inactive) | > 100 µM (inactive) | > 100 µM (inactive) | > 100 µM (inactive) | > 100 µM (inactive) | > 100 µM (inactive) | > 100 µM (inactive) | > 100 µM (inactive) | > 100 µM (inactive) | > 100 | > 100 µM (inactive) | 69 µM (inactive) | > 100 µM (inactive) | > 100 µM (inactive) | > 100 µM (inactive) | > 100 µM (inactive) | > 100 µM (inactive) | > 100 µM (inactive)
8 | COc1cc2c(cc1OC)-c1cc3cc(OC)c(OC)cc3c(C)[n+]1CC2.O=C([O-])CS(=O)(=O)O | > 100 µM (inactive) | > 100 µM (inactive) | 29.3 µM (inactive) | > 100 µM (inactive) | > 100 µM (inactive) | > 100 µM (inactive) | 29.1 µM (inactive) | > 100 µM (inactive) | > 100 µM (inactive) | 79.1 µM (inactive) | 19.3 µM (inactive) | > 100 | > 100 µM (inactive) | > 100 µM (inactive) | 9.51 µM (inactive) | 37.8 µM (inactive) | 0.975 µM (active) | > 100 µM (inactive) | 46.3 µM (inactive) | 15.8 µM (inactive)
9 | COC(=O)C1=C(OC(=O)/C(=C/c2ccccc2)c2ccc([N+](=O)[O-])cc2)C(C(=O)OC)[C@@]2(O)[C@@H](C(=O)OC)[C@H](C)C[C@@H]1[C@@H]2C(=O)OC (stereo not given in full) | > 100 µM (inactive) | 78 µM (inactive) | > 100 µM (inactive) | > 100 µM (inactive) | > 100 µM (inactive) | > 100 µM (inactive) | > 100 µM (inactive) | > 100 µM (inactive) | > 100 µM (inactive) | > 100 µM (inactive) | > 100 µM (inactive) | > 100 | > 100 µM (inactive) | > 100 µM (inactive) | 3.53 µM (inactive) | > 100 µM (inactive) | > 100 µM (inactive) | > 100 µM (inactive) | > 100 µM (inactive) | > 100 µM (inactive)
10 | CCCCCCCCOP(=O)(O)OP(=O)(O)OCC1OC(n2ccc(N)nc2=O)C(O)C1O (stereo not given) | > 100 µM (inactive) | > 100 µM (inactive) | > 100 µM (inactive) | > 100 µM (inactive) | > 100 µM (inactive) | > 100 µM (inactive) | > 100 µM (inactive) | > 100 µM (inactive) | > 100 µM (inactive) | > 100 µM (inactive) | > 100 µM (inactive) | > 100 | > 100 µM (inactive) | > 100 µM (inactive) | > 100 µM (inactive) | > 100 µM (inactive) | > 100 µM (inactive) | > 100 µM (inactive) | > 100 µM (inactive) | > 100 µM (inactive)
11 | CCC(C)C(C(=O)N/N=C1/SCC(=O)N1C)C(=O)N/N=C1/SCC(=O)N1C (stereo not given) | > 100 µM (inactive) | 2.04 µM (inactive) | > 100 µM (inactive) | > 100 µM (inactive) | > 100 µM (inactive) | > 100 µM (inactive) | > 100 µM (inactive) | > 100 µM (inactive) | > 100 µM (inactive) | > 100 µM (inactive) | > 100 µM (inactive) | > 100 | > 100 µM (inactive) | > 100 µM (inactive) | > 100 µM (inactive) | > 100 µM (inactive) | > 100 µM (inactive) | > 100 µM (inactive) | > 100 µM (inactive) | > 100 µM (inactive)
12 | CCN1C(=O)/C(=C\Nc2ccccc2)S/C1=N/Nc1ncc(CC(=O)Nc2ccccc2C)s1 | 83.8 µM (inactive) | 42.6 µM (inactive) | > 100 µM (inactive) | 11.2 µM (inactive) | > 100 µM (inactive) | > 100 µM (inactive) | 43.7 µM (inactive) | > 100 µM (inactive) | > 100 µM (inactive) | > 100 µM (inactive) | 91 µM (inactive) | > 100 | 71.6 µM (inactive) | > 100 µM (inactive) | 51.5 µM (inactive) | 46.5 µM (inactive) | 88.5 µM (inactive) | > 100 µM (inactive) | 82.2 µM (inactive) | > 100 µM (inactive)
13 | COC(=O)CCC(C)[C@H]1CCC2C3C(C[C@H](OC(C)=O)[C@@]21C)[C@@]1(C)CCC2(C[C@H]1C[C@H]3OC(C)=O)OOC1(CCC(C(C)(C)C)CC1)OO2 (stereo not given in full) | 5.7 µM (inactive) | 9.4 µM (inactive) | 64.3 µM (inactive) | 59 µM (inactive) | 5.25 µM (inactive) | > 100 µM (inactive) | 6.85 µM (inactive) | 46.3 µM (inactive) | > 100 µM (inactive) | > 100 µM (inactive) | 46.3 µM (inactive) | 50 | 12.4 µM (inactive) | > 100 µM (inactive) | 7.52 µM (inactive) | 22.6 µM (inactive) | 18.6 µM (inactive) | > 100 µM (inactive) | 31.4 µM (inactive) | 31.8 µM (inactive)
14 | Oc1cc(Cc2ccccc2)c(Cc2ccccc2)cc1O | > 10 µM (inactive) | > 10 µM (inactive) | > 10 µM (inactive) | > 10 µM (inactive) | > 10 µM (inactive) | > 10 µM (inactive) | > 10 µM (inactive) | > 10 µM (inactive) | > 10 µM (inactive) | > 10 µM (inactive) | > 10 µM (inactive) | > 10 | > 10 µM (inactive) | > 10 µM (inactive) | > 10 µM (inactive) | > 10 µM (inactive) | > 10 µM (inactive) | > 10 µM (inactive) | > 10 µM (inactive) | > 10 µM (inactive)

— ChEMBL document CHEMBL1201862, “PubChem BioAssay data set” (2004)
